From patent US11649255B2, “Indazoles as hematopoietic progenitor kinase 1 (HPK1) inhibitors and methods using same” (1st Biotherapeutics, Inc., priority 2020, dated 2023)

Biological target: recombinant human HPK1 (Homo sapiens (Human), UniProt Q92918)
Assay: HPK1 kinase assay (ADP-Glo)
Format: biochemical
Conditions: 25 μM ATP, MBP substrate
How it was run: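 Activity was read as ADP formed, detected by ADP-Glo luminescence after the reaction of 5 ng recombinant human HPK1 with MBP and ATP (stocks 0.5 μg/μl and 25 μM) for 40 min at 30 °C. Buffer was Tris pH 7.5 with MgCl2, BSA and DTT, with compound in 0.5% DMSO. IC50 came from inhibition curves.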

recombinant human HPK1, sequence (Q92918 whole entry): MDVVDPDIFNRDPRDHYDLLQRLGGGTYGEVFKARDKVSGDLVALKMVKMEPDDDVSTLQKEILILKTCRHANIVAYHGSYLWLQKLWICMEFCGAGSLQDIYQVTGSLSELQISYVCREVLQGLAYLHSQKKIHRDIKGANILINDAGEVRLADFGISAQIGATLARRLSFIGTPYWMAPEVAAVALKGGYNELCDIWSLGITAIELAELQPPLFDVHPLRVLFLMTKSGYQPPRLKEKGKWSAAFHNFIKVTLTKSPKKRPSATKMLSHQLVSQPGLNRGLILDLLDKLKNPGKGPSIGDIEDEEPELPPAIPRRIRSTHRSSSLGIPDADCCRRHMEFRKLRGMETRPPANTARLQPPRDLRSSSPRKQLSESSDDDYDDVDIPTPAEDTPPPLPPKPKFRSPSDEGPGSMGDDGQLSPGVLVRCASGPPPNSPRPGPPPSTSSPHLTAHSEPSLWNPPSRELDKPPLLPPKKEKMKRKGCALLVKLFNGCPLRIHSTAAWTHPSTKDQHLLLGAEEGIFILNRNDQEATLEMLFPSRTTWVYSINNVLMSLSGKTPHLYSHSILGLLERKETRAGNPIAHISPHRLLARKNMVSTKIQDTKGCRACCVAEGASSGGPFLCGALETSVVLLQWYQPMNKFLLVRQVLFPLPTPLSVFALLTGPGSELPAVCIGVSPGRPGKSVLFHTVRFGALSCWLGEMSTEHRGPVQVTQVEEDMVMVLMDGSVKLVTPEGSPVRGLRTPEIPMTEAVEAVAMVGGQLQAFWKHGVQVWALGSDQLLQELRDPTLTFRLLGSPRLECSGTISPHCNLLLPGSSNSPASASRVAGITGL

SMILES | IC50 [nM]
O=C(Nc1cc2cc(-c3c(Cl)c(F)c(OCC4CCCO4)c4[nH]ncc34)ccn2n1)[C@@H]1C[C@@H]1F (stereo partly drawn) [Example 507, (1S,2S)-N-(5-(5-chloro-6-fluoro-7-((tetrahydrofuran-2-yl)methoxy)-1H-indazol-4-yl)pyrazolo[1,5-a]pyridin-2-yl)-2-fluorocyclopropane-1-carboxamide] | < 100
Nc1c(F)c(Cl)c(-c2ccc3nc(NC(=O)[C@@H]4C[C@@H]4F)sc3c2)c2cn[nH]c12 [Example 68, (1S,2S)-N-(6-(7-amino-5-chloro-6-fluoro-1H-indazol-4-yl)benzo[d]thiazol-2-yl)-2-fluorocyclopropane-1-carboxamide] | < 100
Nc1ccc2[nH]ncc2c1-c1ccc2nc(NC(=O)C3CC3)cn2c1 [Example 225, N-(6-(5-amino-1H-indazol-4-yl)imidazo[1,2-a]pyridin-2-yl)cyclopropanecarboxamide] | > 1000
O=C(Nc1cc2cc(-c3c(Cl)c(F)c(C4CCCC4)c4[nH]ncc34)ccn2n1)[C@@H]1C[C@@H]1F [Example 651, (1S,2S)-N-(5-(5-chloro-7-cyclopentyl-6-fluoro-1H-indazol-4-yl)pyrazolo[1,5-a]pyridin-2-yl)-2-fluorocyclopropane-1-carboxamide] | < 100
O=C(Nc1cc2cc(-c3c(Cl)c(F)c(Nc4ccncc4)c4[nH]ncc34)ccn2n1)[C@@H]1C[C@@H]1F [Example 609, (1S,2S)-N-(5-(5-chloro-6-fluoro-7-(pyridin-4-ylamino)-1H-indazol-4-yl)pyrazolo[1,5-a]pyridin-2-yl)-2-fluorocyclopropane-1-carboxamide] | < 100
CSc1c(F)c(F)c2[nH]ncc2c1-c1ccn2nc(NC(=O)[C@@H]3C[C@H]3F)cc2c1 [Example 599, (1S,2R)-N-(5-(6,7-difluoro-5-(methylthio)-1H-indazol-4-yl)pyrazolo[1,5-a]pyridin-2-yl)-2-fluorocyclopropane-1-carboxamide] | < 100
CC(C#N)N(C(=O)OCc1ccccc1)c1c(F)c(Cl)c(-c2ccn3nc(NC(=O)[C@@H]4C[C@@H]4F)cc3c2)c2cn[nH]c12 (stereo partly drawn) [Example 643, benzyl (5-chloro-6-fluoro-4-(2-((1S,2S)-2-fluorocyclopropane-1-carboxamido)pyrazolo[1,5-a]pyridin-5-yl)-1H-indazol-7-yl)(1-cyanoethyl)carbamate] | 101 to 500
CC(c1c(F)c(Cl)c(-c2ccc3nc(NC(=O)[C@@H]4C[C@@H]4F)cn3c2)c2cn[nH]c12)n1cnnn1 (stereo partly drawn) [Example 398, (1S,2S)-N-(6-(7-(1-(1H-tetrazol-1-yl)ethyl)-5-chloro-6-fluoro-1H-indazol-4-yl)imidazo[1,2-a]pyridin-2-yl)-2-fluorocyclopropane-1-carboxamide] | < 100
O=C(Nc1cc2cc(-c3c(Br)ccc4[nH]ncc34)ccn2n1)[C@@H]1C[C@@H]1F [Example 455, (1S,2S)-N-(5-(5-bromo-1H-indazol-4-yl)pyrazolo[1,5-a]pyridin-2-yl)-2-fluorocyclopropane-1-carboxamide] | < 100
Cc1c(F)c(OCCNC(N)=O)c2[nH]ncc2c1-c1ccn2nc(NC(=O)[C@@H]3C[C@@H]3F)cc2c1 [Example 544, (1S,2S)-2-fluoro-N-(5-(6-fluoro-5-methyl-7-(2-ureidoethoxy)-1H-indazol-4-yl)pyrazolo[1,5-a]pyridin-2-yl)cyclopropane-1-carboxamide] | < 100
O=C(Nc1cn2cc(-c3c(Cl)c(F)c(C(F)F)c4[nH]ncc34)ccc2n1)[C@@H]1C[C@@H]1F [Example 331, (1S,2S)-N-(6-(5-chloro-7-(difluoromethyl)-6-fluoro-1H-indazol-4-yl)imidazo[1,2-a]pyridin-2-yl)-2-fluorocyclopropane-1-carboxamide] | < 100
O=C(O)NCC1CN(c2c(F)c(Cl)c(-c3ccc4nc(NC(=O)[C@@H]5C[C@@H]5F)sc4c3)c3cn[nH]c23)C1 [Example 90, ((1-(5-chloro-6-fluoro-4-(2-((1S,2S)-2-fluorocyclopropane-1-carboxamido)benzo[d]thiazol-6-yl)-1H-indazol-7-yl)azetidin-3-yl)methyl)carbamic acid] | < 100
O=C(Nc1nc2ccc(-c3cc(-c4cccs4)cc4[nH]ncc34)cc2s1)C1CC1 [Example 22, N-(6-(6-(thiophen-2-yl)-1H-indazol-4-yl)benzo[d]thiazol-2-yl)cyclopropanecarboxamide] | > 1000
Cc1c(F)c(N(C)CCO)c2[nH]ncc2c1-c1ccc2nc(NC(=O)[C@@H]3C[C@@H]3F)sc2n1 [Example 204, (1S,2S)-2-fluoro-N-(5-(6-fluoro-7-((2-hydroxyethyl)(methyl)amino)-5-methyl-1H-indazol-4-yl)thiazolo[5,4-b]pyridin-2-yl)cyclopropane-1-carboxamide] | < 100
CNC(=O)c1c(F)c(C)c(-c2ccc3nc(NC(=O)[C@@H]4C[C@@H]4F)sc3c2)c2cn[nH]c12 [Example 132, 6-fluoro-4-(2-((1S,2S)-2-fluorocyclopropane-1-carboxamido)benzo[d]thiazol-6-yl)-N,5-dimethyl-1H-indazole-7-carboxamide] | 101 to 500
COCc1c(F)c(Cl)c(-c2ccc3nc(NC(=O)[C@@H]4C[C@@H]4F)cn3c2)c2cn[nH]c12 [Example 390, (1S,2S)-N-(6-(5-chloro-6-fluoro-7-(methoxymethyl)-1H-indazol-4-yl)imidazo[1,2-a]pyridin-2-yl)-2-fluorocyclopropane-1-carboxamide] | < 100
COCC1CN(c2c(F)c(Cl)c(-c3ccn4nc(NC(=O)[C@@H]5C[C@@H]5F)cc4c3)c3cn[nH]c23)C1 [Example 627, (1S,2S)-N-(5-(5-chloro-6-fluoro-7-(3-(methoxymethyl)azetidin-1-yl)-1H-indazol-4-yl)pyrazolo[1,5-a]pyridin-2-yl)-2-fluorocyclopropane-1-carboxamide] | < 100
CNC(=O)c1c(F)c(C)c(-c2ccc3nc(NC(=O)[C@@H]4C[C@@H]4F)cn3c2)c2cn[nH]c12 [Example 338, 6-fluoro-4-(2-((1S,2S)-2-fluorocyclopropane-1-carboxamido)imidazo[1,2-a]pyridin-6-yl)-N,5-dimethyl-1H-indazole-7-carboxamide] | 101 to 500
O=C(Nc1cn2cc(-c3c(C(F)F)c(F)cc4[nH]ncc34)ccc2n1)C1CC1 [Example 255, N-(6-(5-(difluoromethyl)-6-fluoro-1H-indazol-4-yl)imidazo[1,2-a]pyridin-2-yl)cyclopropanecarboxamide] | < 100
COC[C@@H](C)c1c(F)c(Cl)c(-c2ccc3nc(NC(=O)[C@@H]4C[C@@H]4F)cn3c2)c2cn[nH]c12 [Example 423, (1S,2S)-N-(6-(5-chloro-6-fluoro-7-((S)-1-methoxypropan-2-yl)-1H-indazol-4-yl)imidazo[1,2-a]pyridin-2-yl)-2-fluorocyclopropane-1-carboxamide] | < 100
CNC(=O)N(C)c1c(F)c(Cl)c(-c2ccc3nc(NC(=O)[C@@H]4C[C@@H]4F)cn3c2)c2cn[nH]c12 [Example 435, (1S,2S)-N-(6-(5-chloro-7-(1,3-dimethylureido)-6-fluoro-1H-indazol-4-yl)imidazo[1,2-a]pyridin-2-yl)-2-fluorocyclopropane-1-carboxamide] | < 100
Cc1c(F)c(C(F)F)c2[nH]ncc2c1-c1ccc2nc(NC(=O)[C@@H]3C[C@@H]3F)sc2n1 [Example 217, (1S,2S)-N-(5-(7-(difluoromethyl)-6-fluoro-5-methyl-1H-indazol-4-yl)thiazolo[5,4-b]pyridin-2-yl)-2-fluorocyclopropane-1-carboxamide] | < 100
CC(C)(C)OC(=O)c1ccc2[nH]ncc2c1-c1ccc2nc(NC(=O)C3CC3)sc2c1 [Example 21, tert-butyl 4-(2-(cyclopropanecarboxamido)benzo[d]thiazol-6-yl)-1H-indazole-5-carboxylate] | > 1000
CNC(=O)c1c(F)c(Cl)c(-c2ccc3nc(NC(=O)[C@@H]4C[C@@H]4F)cn3c2)c2cn[nH]c12 [Example 321, 5-chloro-6-fluoro-4-(2-((1S,2S)-2-fluorocyclopropane-1-carboxamido)imidazo[1,2-a]pyridin-6-yl)-N-methyl-1H-indazole-7-carboxamide] | < 100
CN(C)c1c(F)c(C(F)(F)F)c(-c2ccc3nc(NC(=O)[C@@H]4C[C@@H]4F)sc3c2)c2cn[nH]c12 [Example 130, (1S,2S)-N-(6-(7-(dimethylamino)-6-fluoro-5-(trifluoromethyl)-1H-indazol-4-yl)benzo[d]thiazol-2-yl)-2-fluorocyclopropane-1-carboxamide] | < 100
O=C(Nc1cn2cc(-c3c(Cl)c(F)c(Cn4cncn4)c4[nH]ncc34)ccc2n1)[C@@H]1C[C@@H]1F [Example 385, (1S,2S)-N-(6-(7-((1H-1,2,4-triazol-1-yl)methyl)-5-chloro-6-fluoro-1H-indazol-4-yl)imidazo[1,2-a]pyridin-2-yl)-2-fluorocyclopropane-1-carboxamide] | < 100
CSc1c(F)c(F)c2[nH]ncc2c1-c1ccc2nc(NC(=O)[C@@H]3C[C@@H]3F)sc2n1 [Example 187, (1S,2S)-N-(5-(6,7-difluoro-5-(methylthio)-1H-indazol-4-yl)thiazolo[5,4-b]pyridin-2-yl)-2-fluorocyclopropane-1-carboxamide] | < 100
CCc1c(F)c(SCC(=O)O)c2[nH]ncc2c1-c1ccn2nc(NC(=O)[C@@H]3C[C@@H]3F)cc2c1 [Example 526, 2-((5-ethyl-6-fluoro-4-(2-((1S,2S)-2-fluorocyclopropane-1-carboxamido)pyrazolo[1,5-a]pyridin-5-yl)-1H-indazol-7-yl)thio)acetic acid] | < 100
CCc1c(F)c(F)c2[nH]ncc2c1-c1ccc2nc(NC(=O)[C@@H]3C[C@@H]3F)sc2c1 [Example 106, (1S,2S)-N-(6-(5-ethyl-6,7-difluoro-1H-indazol-4-yl)benzo[d]thiazol-2-yl)-2-fluorocyclopropane-1-carboxamide] | < 100
